Assay results: ChEMBL document CHEMBL5335870, “Discovery of Hepatitis B Virus Surface Antigen Suppressor GS-8873” (ACS Med Chem Lett, 2024)
pEC50: −log10 of the molar value. The source made the active and inactive calls. No cut-off for these calls is given here.

Columns and labels:
Hepatitis B virus [1] = assay: Antiviral activity against genotype D HBV infected in sodium taurocholate co-transporting polypeptide receptor-expressing stable HepG2 cell line assessed as suppression of HBsAg level incubated for 5 days by multiplex chemiluminescent MSD assay; type: functional, organism-based; details: HepG2, 120 h
[2] = Clearance in Sprague-Dawley rat at […], iv measured after 24 hrs by LC/MS/MS method; type: ADME, organism-based; details: in vivo
[3] = Oral bioavailability in Sprague-Dawley rat after 24 hrs by LC/MS/MS method; type: ADME, organism-based; details: in vivo
[4] = Lipophilicity, logD of the compound; type: physicochemical; details: octanol/water
[5] = In vivo clearance in rat; type: ADME, organism-based
[6] = In vivo clearance in dog; type: ADME, organism-based, Canis lupus familiaris
[7] = In vivo clearance in cynomolgus monkey; type: ADME, organism-based, Macaca fascicularis
[8] = Hepatic extraction in rat; type: ADME; details: read-out: ERH
[9] = Hepatic extraction in dog; type: ADME, Canis lupus familiaris; details: read-out: ERH
[10] = Hepatic extraction in cynomolgus monkey; type: ADME, Macaca fascicularis; details: read-out: ERH
[11] = Oral bioavailability in rat at 5 mg/kg; type: ADME, organism-based; details: in vivo
[12] = Oral bioavailability in dog at 5 mg/kg; type: ADME, organism-based, Canis lupus familiaris; details: in vivo
[13] = Oral bioavailability in cynomolgus monkey at 5 mg/kg; type: ADME, organism-based, Macaca fascicularis; details: in vivo
Hepatitis B virus [14] = assay: Antiviral activity against genotype D (AD38-derived) HBV infected in primary human hepatocyte assessed as inhibition of extracellular HBsAg media replaced for every 2 to 3 days incubated for 12 days by multiplex chemiluminescent MSD assay; type: functional; details: time 12 day
Hepatitis B virus [15] = assay: Antiviral activity against genotype A HBV infected in primary human hepatocyte assessed as reduction in […] replaced for every 2 to 3 days incubated for 12 days by multiplex chemiluminescent MSD assay; type: functional, organism-based; details: time 12.0 day
Hepatitis B virus [16] = assay: Antiviral activity against genotype B HBV infected in primary human hepatocyte assessed as reduction in […] replaced for every 2 to 3 days incubated for 12 days by multiplex chemiluminescent MSD assay; type: functional, organism-based; details: time 12.0 day
Hepatitis B virus [17] = assay: Antiviral activity against genotype C HBV infected in primary human hepatocyte assessed as reduction in […] replaced for every 2 to 3 days incubated for 12 days by multiplex chemiluminescent MSD assay; type: functional, organism-based; details: time 12.0 day
Hepatitis B virus [18] = assay: Antiviral activity against genotype E HBV infected in primary human hepatocyte assessed as reduction in […] replaced for every 2 to 3 days incubated for 12 days by multiplex chemiluminescent MSD assay; type: functional, organism-based; details: time 12.0 day
Primary hepatocyte [19] = assay: Effect on cccDNA level in HBV infected primary human hepatocyte at 0.25 uM media replaced for every 2 to 3 days incubated for 12 days by Southern blot analysis; type: functional, cell-based; details: Hepatitis B virus, time 12.0 day
Primary hepatocyte [20] = assay: Effect on cccDNA level in HBV infected primary human hepatocyte at 0.25 uM media replaced for every 2 to 3 days incubated for 12 days in presence of Tenofovir by Southern blot analysis; type: functional, cell-based; details: Hepatitis B virus, time 12.0 day
Hepatitis B virus [21] = assay: Antiviral activity against HBV genome D integrated human HepG2.2.15 cells assessed as reduction in extracellular HBsAg media replaced for every 2 to 3 days incubated for 7 days; type: functional, organism-based; details: time 7.0 day
Hepatitis B virus [22] = assay: Antiviral activity against HBV genome D integrated human HepAD38 cells assessed as reduction in extracellular HBsAg media replaced for every 2 to 3 days incubated for 7 days […]; type: functional, organism-based; details: time 7.0 day
Hepatitis B virus [23] = assay: Antiviral activity against HBV infected in primary human hepatocyte assessed as reduction in intracellular HBsAg protein at 250 nM media replaced for every 2 to 3 days incubated for 14 days by immunofluorescence microscopy; type: functional, organism-based; details: time 14.0 day
PBMC = assay: Cytotoxicity against human PBMC cells assessed as inhibition of cell viability measured upto 17 uM incubated for 5 days; type: toxicity, cell-based; details: 120 h, time 5 day
[24] = Cytotoxicity against rat NRVM cells assessed as inhibition of cell viability measured upto 17 uM incubated for 5 days; type: toxicity, cell-based; details: 120 h, time 5 day
MT4 = assay: Cytotoxicity against human MT4 cells assessed as inhibition of cell viability measured upto 17 uM incubated for 5 days; type: toxicity, cell-based; details: mt4, 120 h, time 5 day
HepG2 = assay: Cytotoxicity against human HepG2 cells assessed as inhibition of cell viability measured upto 17 uM incubated for 5 days; type: toxicity, cell-based; details: hepg2, 120 h, time 5 day
Huh-7 = assay: Cytotoxicity against human Huh-7 cells assessed as inhibition of cell viability measured upto 17 uM incubated for 5 days; type: toxicity, cell-based; details: huh-7, 120 h, time 5 day
MRC5 = assay: Cytotoxicity against human MRC5 cells assessed as inhibition of cell viability measured upto 17 uM incubated for 5 days; type: toxicity, cell-based; details: mrc5, 120 h, time 5 day
PC-3 = assay: Cytotoxicity against human PC-3 cells assessed as inhibition of cell viability measured upto 17 uM incubated for 5 days; type: toxicity, cell-based; details: pc-3, 120 h, time 5 day
J82 = assay: Cytotoxicity against human J82 cells assessed as inhibition of cell viability measured upto 17 uM incubated for 5 days; type: toxicity, cell-based; details: j82, 120 h, time 5 day
MG-63 = assay: Cytotoxicity against human MG-63 cells assessed as inhibition of cell viability measured upto 17 uM incubated for 5 days; type: toxicity, cell-based; details: mg-63, 120 h, time 5 day
A 172 = assay: Cytotoxicity against human A-172 cells assessed as inhibition of cell viability measured upto 17 uM incubated for 5 days; type: toxicity, cell-based; details: a 172, 120 h, time 5 day
SK-N-AS = assay: Cytotoxicity against human SK-N-AS cells assessed as inhibition of cell viability measured upto 17 uM incubated for 5 days; type: toxicity, cell-based; details: 120 h, time 5 day
769-P = assay: Cytotoxicity against human 769-P cells assessed as inhibition of cell viability measured upto 17 uM incubated for 5 days; type: toxicity, cell-based; details: 120 h, time 5 day
A498 = assay: Cytotoxicity against human A498 cells assessed as inhibition of cell viability measured upto 17 uM incubated for 5 days; type: toxicity, cell-based; details: a498, 120 h, time 5 day
OVCAR-3 = assay: Cytotoxicity against human OVCAR-3 cells assessed as inhibition of cell viability measured upto 17 uM incubated for 5 days; type: toxicity, cell-based; details: ovcar-3, 120 h, time 5 day
ASPC1 = assay: Cytotoxicity against human AsPC1 cells assessed as inhibition of cell viability measured upto 17 uM incubated for 5 days; type: toxicity, cell-based; details: aspc1, 120 h, time 5 day
A-375 = assay: Cytotoxicity against human A-375 cells assessed as inhibition of cell viability measured upto 17 uM incubated for 5 days; type: toxicity, cell-based; details: a-375, 120 h, time 5 day
A204 = assay: Cytotoxicity against human A204 cells assessed as inhibition of cell viability measured upto 17 uM incubated for 5 days; type: toxicity, cell-based; details: a204, 120 h, time 5 day
AN3-CA = assay: Cytotoxicity against human AN3-CA cells assessed as inhibition of cell viability measured upto 17 uM incubated for 5 days; type: toxicity, cell-based; details: 120 h, time 5 day
Hepatocyte = assay: Cytotoxicity against primary human hepatocyte assessed as change in cell morphology; type: toxicity, cell-based; details: hepatocytes
[25] = system: Woodchuck hepatitis virus; assay: Antiviral activity against WHV-infected Woodchucks assessed as reduction in WHV sAg level in plasma at 15 mg/kg, po qd for 12 weeks; type: functional
Hepatitis B virus [26] = assay: In vivo antiviral activity against HBV in model of HBV 1.3.32 mouse harboring integrated greater-than-genome-length HBV transgene assessed as reduction in plasma HBsAg level at 50 mg/kg, sc qd treated for 4 weeks (reference value: 1.1 log10 ng/ml); type: functional
Hepatitis B virus [27] = assay: In vivo antiviral activity against HBV in model of HBV 1.3.32 mouse harboring integrated greater-than-genome-length HBV transgene assessed as plasma HBsAg level measured in off-treatment recovery phase at 50 mg/kg, sc qd treated for 4 weeks (reference value: 1.1 log10 ng/ml); type: functional

COCCCOc1cc2c(cc1Cl)-c1cc(=O)c(C(=O)O)cn1N(C(C)(C)C)C2
pEC50 (Hepatitis B virus [1]): 8.24 | clearance [2]: 19.7 mL/min/kg | bioavailability [3]: 109% | logD [4]: 2 | clearance [5]: 3 mL/min/kg | clearance [6]: 2.17 mL/min/kg | clearance [7]: 0.533 mL/min/kg | hepatic extraction ratio [8]: 0.043 | hepatic extraction ratio [9]: 0.072 | hepatic extraction ratio [10]: 0.02 | bioavailability [11]: > 100% | bioavailability [12]: > 100% | bioavailability [13]: 48% | inhibition (INH) (Hepatitis B virus [14]): 85% | Activity (Hepatitis B virus [15]): Active | Activity (Hepatitis B virus [16]): Active | Activity (Hepatitis B virus [17]): Active | Activity (Hepatitis B virus [18]): Active | Activity (Primary hepatocyte [19]): inactive | Activity (Primary hepatocyte [20]): inactive | Activity (Hepatitis B virus [21]): Active | Activity (Hepatitis B virus [22]): Active | Activity (Hepatitis B virus [23]): Active | Activity (PBMC): Non-Toxic | Activity [24]: Non-Toxic | Activity (MT4): Non-Toxic | Activity (HepG2): Non-Toxic | Activity (Huh-7): Non-Toxic | Activity (MRC5): Non-Toxic | Activity (PC-3): Non-Toxic | Activity (J82): Non-Toxic | Activity (MG-63): Non-Toxic | Activity (A 172): Non-Toxic | Activity (SK-N-AS): Non-Toxic | Activity (769-P): Non-Toxic | Activity (A498): Non-Toxic | Activity (OVCAR-3): Non-Toxic | Activity (ASPC1): Non-Toxic | Activity (A-375): Non-Toxic | Activity (A204): Non-Toxic | Activity (AN3-CA): Non-Toxic | Activity (Hepatocyte): Non-Toxic | Activity [25]: 1.4 log10ng/ml | Activity (Hepatitis B virus [26]): 2.2 log10ng/ml | Activity (Hepatitis B virus [27]): 0.7 log10ng/ml
